Reference: ChEMBL document CHEMBL4043091, “Lead Discovery of Dual G-Quadruplex Stabilizers and Poly(ADP-ribose) Polymerases (PARPs) Inhibitors: A New Avenue in Anticancer Treatment” (J Med Chem, 2017)
The source made the active and inactive calls. No cut-off for these calls is given here.

How the values were obtained:
BJeH-LT [1] = assay: Induction of DNA damage in human BJeH-LT cells assessed as increase in gamma-H2AX foci formation at 1 uM after 24 hrs followed by compound washout by hoechst staining-based immunofluorescence analysis; type: functional, cell-based
Homo sapiens [2] = species: Homo sapiens; assay: Binding affinity to G-quadruplex DNA in human BJeH-LT cells at 1 uM after 24 hrs by hoechst staining-based immunofluorescence analysis; type: cell-based
Homo sapiens [3] = species: Homo sapiens; assay: Binding affinity to human telomeric 23-p G-quadruplex DNA assessed as increase in melting temperature at lower concentration after 30 mins by CD spectra analysis
[4] = Binding affinity to human Cy5-labeled telomeric 26 G-quadruplex DNA by […] analysis
Homo sapiens [5] = species: Homo sapiens; assay: Binding affinity to human telomeric 23 G-quadruplex DNA assessed as change in melting temperature at 10 molequiv after 30 mins by CD spectra analysis
Homo sapiens [6] = species: Homo sapiens; assay: Binding affinity to human telomeric 26 G-quadruplex DNA assessed as change in melting temperature at 10 molequiv after 30 mins by CD spectra analysis
[7] = Binding affinity to 5'-FAM/3'-TAMRA labelled F21T G-quadruplex DNA (unknown origin) assessed as change in melting temperature at 4 uM by FRET assay
[8] = Binding affinity to 12-mer duplex DNA (unknown origin) at 10 molequiv after 30 mins by CD spectra analysis
Homo sapiens [9] = species: Homo sapiens; assay: Binding affinity to human telomeric 23-p G-quadruplex DNA assessed as change in melting temperature at 10 molequiv after 30 mins by CD spectra analysis
hTERT-BJ = assay: Induction of DNA damage in human hTERT-BJ cells assessed as increase in gamma-H2AX foci formation at 1 uM after 24 hrs by hoechst staining-based immunofluorescence analysis; type: cell-based
Homo sapiens [10] = species: Homo sapiens; assay: Binding affinity to human telomeric 26 G-quadruplex DNA assessed as increase in melting temperature up to 300 uM after 30 mins by CD spectra analysis
BJeH-LT [11] = assay: Induction of DNA damage in human BJeH-LT cells assessed as increase in telomere's dysfunction induced foci positive nuclei at 1 uM after 24 hrs by hoechst staining-based immunofluorescence analysis; type: functional, cell-based
[12] = Binding affinity to 5'-FAM/3'-TAMRA labelled F21T G-quadruplex DNA (unknown origin) assessed as increase in melting temperature at 4 uM in presence of 5 to 10 uM 12-mer duplex DNA by FRET assay
Homo sapiens [13] = species: Homo sapiens; assay: Binding affinity to human telomeric 23 G-quadruplex DNA assessed as increase in melting temperature up to 300 uM after 30 mins by CD spectra analysis
BJeH-LT [14] = assay: Induction of DNA damage in human BJeH-LT cells assessed as increase in gamma-H2AX foci formation at 1 uM after 24 hrs by hoechst staining-based immunofluorescence analysis; type: functional, cell-based
DLD-1 [15] = assay: Antiproliferative activity against human DLD1 cells harboring BRCA2 up to 2 uM after 6 days by MTT assay; type: functional, cell-based
DLD-1 [16] = assay: Antiproliferative activity against human DLD1 cells deficient BRCA2 up to 2 uM after 6 days by MTT assay; type: functional, cell-based
BJeH-LT [17] = assay: Induction of DNA damage in human BJeH-LT cells assessed as increase in gamma-H2AX foci formation at >1 uM after 24 hrs by hoechst staining-based immunofluorescence analysis; type: functional, cell-based
Homo sapiens [18] = species: Homo sapiens; assay: Binding affinity to human telomeric 23-p G-quadruplex DNA assessed as increase in melting temperature up to 240 uM after 30 mins by CD spectra analysis
Homo sapiens [19] = species: Homo sapiens; assay: Inhibition of PARP in human BJeH-LT cells assessed as reduction of Poly(ADP-ribosyl)ation at 1 uM preincubated for 16 hrs followed by [3H]NAD addition measured after 10 mins by liquid scintillation counting method; type: cell-based
[20] = target: Poly [ADP-ribose] polymerase 1 (Homo sapiens, UniProt P09874); assay: Inhibition of recombinant human PARP1 expressed in Escherichia coli assessed as reduction of Poly(ADP-ribosyl)ation after 15 mins in presence of [3H]NAD+/cleaved DNA/histones by scintillation counting method
Homo sapiens [21] = species: Homo sapiens; assay: Binding affinity to human Cy5-labeled telomeric 26 G-quadruplex DNA at 10^-1 to 10^4 nM by […] analysis

Chain of Poly [ADP-ribose] polymerase 1 (P09874 whole entry): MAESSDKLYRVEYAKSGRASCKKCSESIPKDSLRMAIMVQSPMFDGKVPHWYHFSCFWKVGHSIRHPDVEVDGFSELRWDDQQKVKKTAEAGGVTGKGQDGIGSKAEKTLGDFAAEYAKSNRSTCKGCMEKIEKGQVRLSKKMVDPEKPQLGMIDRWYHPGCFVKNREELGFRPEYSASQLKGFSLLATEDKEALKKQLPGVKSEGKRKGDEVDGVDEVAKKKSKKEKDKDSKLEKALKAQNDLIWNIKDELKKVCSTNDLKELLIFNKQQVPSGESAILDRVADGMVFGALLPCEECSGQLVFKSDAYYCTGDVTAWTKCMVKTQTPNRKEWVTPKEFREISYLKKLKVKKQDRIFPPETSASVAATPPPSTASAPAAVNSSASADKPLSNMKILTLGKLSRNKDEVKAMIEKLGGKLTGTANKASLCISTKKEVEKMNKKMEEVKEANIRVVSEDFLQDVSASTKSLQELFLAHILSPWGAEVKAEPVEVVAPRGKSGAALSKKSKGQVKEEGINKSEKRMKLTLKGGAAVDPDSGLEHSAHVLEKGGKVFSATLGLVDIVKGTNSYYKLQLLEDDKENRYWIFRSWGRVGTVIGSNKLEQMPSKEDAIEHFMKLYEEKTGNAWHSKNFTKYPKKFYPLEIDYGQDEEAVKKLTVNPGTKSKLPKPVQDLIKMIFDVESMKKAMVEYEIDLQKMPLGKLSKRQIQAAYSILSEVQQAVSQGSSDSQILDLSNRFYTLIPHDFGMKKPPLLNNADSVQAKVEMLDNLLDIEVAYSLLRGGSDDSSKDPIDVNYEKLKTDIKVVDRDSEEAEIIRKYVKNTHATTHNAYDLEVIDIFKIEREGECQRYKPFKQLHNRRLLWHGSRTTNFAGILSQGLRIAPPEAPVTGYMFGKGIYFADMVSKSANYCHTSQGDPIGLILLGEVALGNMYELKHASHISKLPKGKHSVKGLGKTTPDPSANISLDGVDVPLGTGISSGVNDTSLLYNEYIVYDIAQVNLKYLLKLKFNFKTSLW

ΔTm (Homo sapiens [5])	ΔTm (Homo sapiens [6])	ΔTm (Homo sapiens [9])	SMILES	Activity (BJeH-LT [1])	Activity (Homo sapiens [2])	Activity (hTERT-BJ)	Activity (BJeH-LT [11])	Activity (BJeH-LT [14])	other results
5.8 °C	5.5 °C	7 °C	Cn1c(=O)c2cc(C(=O)NCCN3CCC(Cc4ccccc4)CC3)sc2c2ccccc21	inactive	Active	Non-Toxic	Active	Active	Activity (Homo sapiens [3]): Active; Kd [4]: 240 nM; ΔTm [7]: 4.5 °C; Activity [8]: inactive; Activity (Homo sapiens [10]): Active; Activity [12]: Active; Activity (Homo sapiens [13]): Active
0.1 °C	1.3 °C	2.6 °C	COC1CCN(C(=O)c2cc(Cc3n[nH]c(=O)c4ccccc34)ccc2F)CC1		inactive				
-0.8 °C	1.4 °C	1.4 °C	COC(=O)c1cc2c(s1)c1ccccc1c(=O)n2C	inactive	Active	Non-Toxic	inactive	Active	
1.5 °C	2.2 °C	1.9 °C	COC(=O)c1cc2c(=O)[nH]c3ccccc3c2s1	inactive	Active	Non-Toxic	inactive	Active	
0.3 °C	2.6 °C	7.7 °C	O=C(NCCN1CCC(Cc2ccccc2)CC1)c1cc2c(=O)[nH]c3ccccc3c2s1	inactive	Active	Non-Toxic	Active	Active	Activity (Homo sapiens [18]): Active; Activity [8]: inactive
0.7 °C	2 °C	4.2 °C	O=C(NCCN1CCC(Cc2ccccc2)CC1)c1cc2[nH]c(=O)c3ccccc3c2s1	inactive					inhibition (Homo sapiens [19]): Active; IC50 [20]: 223 nM
0.4 °C	0.4 °C	2.4 °C	COC(=O)c1cc2c(=O)n(C)c3ccccc3c2s1	inactive	Active				Activity (BJeH-LT [17]): inactive; Activity (Homo sapiens [21]): inactive
1.6 °C	3 °C	10.5 °C	Cn1c(=O)c2ccccc2c2sc(C(=O)NCCN3CCC(Cc4ccccc4)CC3)cc21	inactive	Active	Non-Toxic	Active	Active	Activity (Homo sapiens [18]): Active; Activity [8]: inactive

The remaining lines, values behind:

SMILES	ΔTm (Homo sapiens [5])	ΔTm (Homo sapiens [6])	ΔTm (Homo sapiens [9])	Activity (BJeH-LT [1])	Activity (Homo sapiens [2])	Activity (hTERT-BJ)	Activity (BJeH-LT [11])	Activity (BJeH-LT [14])	other results
O=c1[nH]c2sccc2c2ccccc12					inactive			inactive	Activity (DLD-1 [15]): inactive; Activity (DLD-1 [16]): inactive
COC(=O)c1cc2[nH]c(=O)c3ccccc3c2s1	0.9 °C	0.9 °C	3 °C	inactive	Active				Activity (BJeH-LT [17]): inactive
CN1C(=O)C2C=C(C(=O)NCCN3CCC(Cc4ccccc4)CC3)SC2c2ccccc21 (stereo unspecified)					Active		Active		Activity (DLD-1 [15]): Active; Activity (DLD-1 [16]): Active
Cc1nc2c(O)cccc2c(=O)[nH]1	0 °C	1.1 °C	2.4 °C						
Oc1nc(-c2ccc(C(F)(F)F)cc2)nc2c1CSCC2					inactive				
